Molecular target: T1, hP2X7 (Homo sapiens, UniProt Q99572)
T1 construct: expressed in transfected cells; host or cells: 1321N1 astrocytoma cells
T1 sequence (Q99572 1-595): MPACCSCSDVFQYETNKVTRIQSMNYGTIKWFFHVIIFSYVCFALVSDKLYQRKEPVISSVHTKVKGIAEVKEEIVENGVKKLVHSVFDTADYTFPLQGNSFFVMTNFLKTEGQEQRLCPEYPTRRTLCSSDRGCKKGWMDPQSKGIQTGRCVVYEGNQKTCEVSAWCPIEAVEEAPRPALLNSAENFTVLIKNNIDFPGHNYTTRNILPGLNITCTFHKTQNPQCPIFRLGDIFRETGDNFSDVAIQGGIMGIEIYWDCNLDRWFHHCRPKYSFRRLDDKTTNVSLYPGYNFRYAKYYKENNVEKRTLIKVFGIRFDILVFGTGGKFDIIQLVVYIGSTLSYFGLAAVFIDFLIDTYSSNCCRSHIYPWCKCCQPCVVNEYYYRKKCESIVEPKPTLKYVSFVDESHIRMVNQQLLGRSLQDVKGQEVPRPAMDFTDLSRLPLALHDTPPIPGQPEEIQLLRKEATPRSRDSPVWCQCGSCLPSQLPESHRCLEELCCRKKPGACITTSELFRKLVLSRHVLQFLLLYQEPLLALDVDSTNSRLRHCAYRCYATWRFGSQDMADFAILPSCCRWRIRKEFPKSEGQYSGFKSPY
Test: P2X7 antagonism: ligand-induced Ca2+ flux in 1321N1 astrocytoma cells overexpressing hP2X7
Format: cell-based
Settings: pIC50 = -log(IC50), read-out: hP2RX7pIC50 (mean pIC50 values) (converted)
Description: Extracellular binding of ATP to P2X7 that is expressed in the cell-membrane opens the ligand gated cation channel and allows Ca^2+ entry into the cell. This ligand-induced Ca^2+ flux was measured in 1321N1 astrocytoma cells overexpressing hP2X7 for the compounds of the present invention.
The calcium assay kit used (Molecular Devices, R8090), provides a Ca^2+ sensitive dye together with a quenching dye. However, no specifications are given by the manufacturer. The kit most likely consists of a membrane permeable acetoxymethyl (AM) ester of a fluorescent Ca^2+ indicator, such as fluo-4 or fluo-3. Upon cellular uptake, the AM esters get cleaved by esterases, liberating the Ca^2+-sensitive dye which can then bind calcium. The dyes have an absorption spectrum compatible with excitation at 488 nm by argon laser sources and a large fluorescence intensity increase in response to Ca^2+ binding without an accompanying spectral shift. Emission wavelength is in the range of 510-560 nm.
The fluorescence, and thus the changes in intracellular [Ca^2+] in the 1321N1 cells was monitored in time before and after addition of the agonist. The effect of the antagonist was measured as % control and as IC50.

IC50	SMILES
170 nM	CN(C)c1ncc(C(CNC(=O)c2cccc3nc(NCC4CC4)ccc23)N2CCOCC2)cn1 (centres unmarked) [Compound 245]
32.4 nM	O=C(NCC(c1cnc(OCC2CC2)nc1)N1CCC(F)(F)CC1)c1cccc2nc(N3CCOCC3)ccc12 (centres unmarked) [Compound 246]
20.9 nM	O=C(NCC(c1cnc(OCC2CC2)nc1)N1CCC(F)(F)CC1)c1cccc2nc(NC3CC3)ccc12 (centres unmarked) [Compound 247]
33.1 nM	CC(C)Oc1ncc(C(CNC(=O)c2cccc3nc(NCC4CC4)ccc23)N2CCC(F)(F)CC2)cn1 (centres unmarked) [Compound 248]
51.3 nM	O=C(NCC(c1cnc(C2CCCC2)nc1)N1CCC(F)(F)CC1)c1cccc2nc(N3CCOCC3)ccc12 (centres unmarked) [Compound 249]
77.6 nM	CC(=O)N1CCN(c2ncc(C(CNC(=O)c3cccc4nc(N5CCOCC5)ccc34)N3CCC(F)(F)CC3)cn2)CC1 (centres unmarked) [Compound 250]
64.6 nM	CC(=O)N1CCN(c2ncc(C(CNC(=O)c3cccc4nc(NC5CC5)ccc34)N3CCC(F)(F)CC3)cn2)CC1 (centres unmarked) [Compound 251]
49 nM	O=C(NCC(c1cnc(N2CCOCC2)nc1)N1CCC(F)(F)CC1)c1cccc2nc(NCC3CC3)ccc12 (centres unmarked) [Compound 252]
36.3 nM	CCOc1ncc(C(CNC(=O)c2cccc3nc(N4CCOCC4)ccc23)N2CCC(F)(F)CC2)cn1 (centres unmarked) [Compound 253]
29.5 nM	CCOc1ncc(C(CNC(=O)c2cccc3nc(NC4CC4)ccc23)N2CCC(F)(F)CC2)cn1 (centres unmarked) [Compound 254]
44.7 nM	O=C(NCC(c1cncnc1)N1CCC(F)(F)CC1)c1cccc2nc(NC3CC3)ccc12 (centres unmarked) [Compound 256]
26.3 nM	CCOc1ncc(C(CNC(=O)c2cccc3nc(NCC4CC4)ccc23)N2CCC(F)(F)CC2)cn1 (centres unmarked) [Compound 257]
44.7 nM	CC(C)c1ncc(C(CNC(=O)c2cccc3nc(NCC4CC4)ccc23)N2CCC(F)(F)CC2)cn1 (centres unmarked) [Compound 258]
97.7 nM	O=C(NCC(c1cnc(N2CCCC2)nc1)N1CCOCC1)c1cccc2nc(NC3CC3)ccc12 (centres unmarked) [Compound 259]
27.5 nM	COc1ncc(C(CNC(=O)c2cccc3nc(NCC4CC4)ccc23)N2CCC(F)(F)CC2)cn1 (centres unmarked) [Compound 260]
37.2 nM	CC(C)c1ncc(C(CNC(=O)c2cccc3nc(NC4CC4)ccc23)N2CCC(F)(F)CC2)cn1 (centres unmarked) [Compound 261]
56.2 nM	O=C(NCC(c1cnc(N2CCCC2)nc1)N1CCC(F)(F)CC1)c1cccc2nc(NCC3CC3)ccc12 (centres unmarked) [Compound 262]
37.2 nM	O=C(NCC(c1cnc(NC2CC2)nc1)N1CCC(F)(F)CC1)c1cccc2nc(NCC3CC3)ccc12 (centres unmarked) [Compound 263]
77.6 nM	O=C(NCC(c1cnc(N2CCCC2)nc1)N1CCOCC1)c1cccc2nc(NCC3CC3)ccc12 (centres unmarked) [Compound 264]
64.6 nM	CC(C)c1ncc(C(CNC(=O)c2cccc3nc(N4CCOCC4)ccc23)N2CCC(F)(F)CC2)cn1 (centres unmarked) [Compound 265]
50.1 nM	CN(C)c1ncc(C(CNC(=O)c2cccc3nc(NCC4CC4)ccc23)N2CCC(F)(F)CC2)cn1 (centres unmarked) [Compound 266]
115 nM	Nc1ncc(C(CNC(=O)c2cccc3nc(NCC4CC4)ccc23)N2CCC(F)(F)CC2)cn1 (centres unmarked) [Compound 267]
33.1 nM	O=C(NCC(c1cncnc1)N1CCC(F)(F)CC1)c1cccc2nc(N3CCOCC3)ccc12 (centres unmarked) [Compound 268]
229 nM	O=C(NCC(c1cnc(N2CCOCC2)nc1)N1CCC(F)(F)CC1)c1cccc2nc(N3CCOCC3)ccc12 (centres unmarked) [Compound 269]
102 nM	O=C(NCC(c1cnc(NC2CC2)nc1)N1CCC(F)(F)CC1)c1cccc2nc(NC3CC3)ccc12 (centres unmarked) [Compound 270]
107 nM	CC1CN(c2ccc3c(C(=O)NCC(c4cnc(C(F)(F)F)nc4)N4CCOCC4)cccc3n2)CCN1 (centres unmarked) [Compound 271]
60.3 nM	CC(C)N(C)c1ccc2c(C(=O)NCC(c3cnc(C(F)(F)F)nc3)N3CCOCC3)cccc2n1 (centres unmarked) [Compound 272]
112 nM	CC1(C)CCN(c2ccc3c(C(=O)NCC(c4cnc(C(F)(F)F)nc4)N4CCOCC4)cccc3n2)CC1 (centres unmarked) [Compound 273]
145 nM	CCC1CN(c2ccc3c(C(=O)NCC(c4cnc(C(F)(F)F)nc4)N4CCOCC4)cccc3n2)CCN1 (centres unmarked) [Compound 274]

From US8431704B2, “Quinoline or isoquinoline substituted P2X7 antagonists” (Janssen Pharmaceutica NV, priority 2008, dated 2013)
